Among the data in EP1268431B1 (Wyeth, priority 2000, dated 2001) are IC50 values, retold here.

Assay [1] has as its system human adenocarcinoma cell line CaCo-2. Briefly: Cell Based Screen for Inhibitors of Raf Kinase, CaCo-2 cells. Particulars: CaCo-2, four days, SRB. As to the method: (§1) • Cell Lines: Human adenocarcinoma cell line LoVo which is known to be growth inhibited by low nM concentrations of a reference standard inhibitor of Ras and human adenocarcinoma cell line CaCo-2, which is known to be growth resistant to the same reference compound. • Cell Media: RPMI 1640 with 10% Fetal Bovine Serum supplemented with L-glutamine and Pennicilin/Streptomycin. • Compounds: Supplied usually as a 10 mM stock in 100% DMSO. • Normal Saline: 150 mM NaCl • Trichloroacetic Acid (TCA): 50% (w/v) in water • Sulforhodamine B (SRB): 0.4% (w/v) in 1% Acetic Acid • Tris Base: 10 mM in water
(§2) Cells are plated at 2000 cells per well for cell line LoVo and 1500 cells for cell line CaCo-2 in 96 well plates. Cells are plated in media (200 µl) and allowed to adhere overnight at 37° C. At 24 hours post plating, compounds are added directly at a volume of 0.5 µl. For the qualitative screen (compounds screened at 25 µM) compound is added directly to cells. For the quantitative screen, compound is first diluted in DMSO to generate concentrations of compound or reference standard of: 1, 5, 10 and 25 µM. It is advisable to make the dilutions in an identical 96 well plate so that compounds may be added using a multichannel micropipettor set at 0.5 µl. The cells are then incubated for four days after which the media is removed using a 12 well manifold by first tipping the plate forward at a 45 degree angle and then inserting the manifold in an upright orientation to prevent the tips of the manifold from disturbing cells at the bottom of the plate. 200 µl of normal saline is then added to each well using an 8 well multichannel pipettor, followed by the careful addition of 50 µl of 50% TCA. The plates are then incubated for 2 hours at 4 ° C, after which the supernatant is removed using the same technique as above and the plated washed twice with 200 µl water. The plates are then air dried and 50 µl of SRB stock solution is carefully added so that the entire bottom of each well is covered. This again may be used using an 8 well multichannel pipettor. The SRB is incubated with fixed cells for 15 minutes at room temperature after which the SRB is removed with the manifold as described above and the plates washed twice with 350 µl of 1% acetic acid per well each time.The plates are then air dried after which the bound SRB is released from protein by the addition of 200 µl of Tris base. Resolubilizing the SRB is aided by placing the plates on a rotator for 15-30 minutes. The absorbance of each well is determined at 550 or 562 nm using a microtiter plate reader.
(§3) Each compound or dilution thereof is performed in triplicate. Outliers are identified by visual inspection of the data. Each plate should have a "0" control (vehicle only).
(§4) Quantitative Assay: A standard curve is constructed by plotting the concentration of compound against the average absorbance calculated at that concentration. A curve is plotted and the concentration at which the curve passes through the 50% the absorbance mark seen in the "0" control well is the IC50 calculated for that compound. […]

Assay [2] concerns Human adenocarcinoma cell line LoVo. Nature of the assay: Cell Based Screen for Inhibitors of Raf Kinase, LoVo cells. As to conditions: four days, SRB. As to the method:
as §1, §2, §3, §4

Broadly, the IC50 is the concentration that gives 50% inhibition. Higher therefore signals a need for much substance.

Several values for one entry are separate records, joined by “and”; a condition that tells them apart may be missing. Identical values can stand only once.

As to `CN1CCN(Cc2ccnc(-c3ccc4c(Nc5ccc(Sc6nccn6C)c(Cl)c5)c(C#N)cnc4c3)c2)CC1` [Example 206, 4-({3-chloro-4-[(1-methyl-1H-imidazol-2-yl)sulfanyl]phenyl}amino)-7-{4-[(4-methyl-1-piperazinyl)methyl]-2-pyridinyl}-3-quinolinecarbonitrile], the half-inhibitory concentration (IC50) in assay [1] (Homo sapiens, Caco-2, 96 h) is greater than 1000 nM; in assay [2] (Homo sapiens, 96 h), 280 nM.
With `CN1CCN(Cc2cccc(-c3ccc4c(Nc5ccc(Sc6nccn6C)c(Cl)c5)c(C#N)cnc4c3)n2)CC1` [Example 202, 4-{3-chloro-4-[(1-methyl-1H-imidazol-2-yl)sulfanyl]anilino}-7-{6-[(4-methyl-1-piperazinyl)methyl]-2-pyridinyl}-3-quinolinecarbonitrile], the IC50 was greater than 1000 nM in assay [1] (Homo sapiens, Caco-2, 96 h) and 6.5 nM in assay [2] (Homo sapiens, 96 h).
Consider `N#Cc1cnc2cc(-c3ccc(CN4CCOCC4)c(CN4CCOCC4)c3)ccc2c1Nc1ccc(OCc2ccccc2)c(Cl)c1` [Example 132, 4-[4-(benzyloxy)-3-chloroanilino]-7-[3,4-bis(4-morpholinylmethyl)phenyl]-3-quinolinecarbonitrile], for which the concentration for half-maximal inhibition (IC50) was 7000 nM in assay [1] (Homo sapiens, Caco-2, 96 h) and 430 nM in assay [2] (Homo sapiens, 96 h).
With `Cn1ccnc1Sc1ccc(Nc2c(C#N)cnc3cc(-c4ccc(CN5CCN(CCO)CC5)o4)ccc23)cc1Cl` [Example 157, 4-{3-chloro-4-[(1-methyl-1H-imidazol-2-yl)sulfanyl]anilino}-7-(5-{[4-(2-hydroxyethyl)-1-piperazinyl]methyl}-2-furyl)-3-quinolinecarbonitrile], the concentration for half-maximal inhibition (IC50) was greater than 1000 nM in assay [1] (Homo sapiens, Caco-2, 96 h) and 24.5 nM in assay [2] (Homo sapiens, 96 h).
Turning to `Cn1ccnc1Sc1ccc(Nc2c(C#N)cnc3cc(-c4ccc(CN5CCOCC5)cn4)ccc23)cc1Cl` [Example 187, 4-{3-chloro-4-[(1-methyl-1H-imidazol-2-yl)sulfanyl]anilino}-7-[5-(4-morpholinylmethyl)-2-pyridinyl]-3-quinolinecarbonitrile], the IC50 in assay [1] is 5500 nM; in assay [1] (Homo sapiens, Caco-2, 96 h) it was greater than 10000 nM; in assay [2], 9 nM.
As for `COc1cc2c(Nc3ccc(Sc4nccn4C)c(Cl)c3)c(C#N)cnc2cc1-c1ccc(CN2CCOCC2)cc1` [Example 123, 4-{3-Chloro-4-[(1-methyl-1H-imidazol-2-yl)sulfanyl]anilino}-6-methoxy-7-[4-(4-morpholinylmethyl)phenyl]-3-quinolinecarbonitrile], the half-inhibitory concentration (IC50) came out at 1500 nM in assay [1] (Homo sapiens, Caco-2, 96 h) and 40 nM in assay [2] (Homo sapiens, 96 h).
With `Cn1ccnc1Sc1ccc(Nc2c(C#N)cnc3cc(-c4ccc(CN5CCN(C(=O)OC(C)(C)C)CC5)cc4)ccc23)cc1Cl` [Example 137, tert-butyl 4-{4-[4-({3-chloro-4-[(1-methyl-1H-imidazol-2-yl)sulfanyl]phenyl}amino)-3-cyano-7-quinolinyl]benzyl}-1-piperazinecarboxylate], the IC50 in assay [1] (Homo sapiens, Caco-2, 96 h) was greater than 1000 nM; in assay [2] (Homo sapiens, 96 h) it was 48.5 nM.
With `Cn1ccnc1Sc1ccc(Nc2c(C#N)cnc3cc(-c4ccc(N5CCC(O)CC5)nc4)ccc23)cc1Cl` [Example 214, 4-({3-chloro-4-[(1-methyl-1H-imidazol-2-yl)sulfanyl]phenyl}amino)-7-[6-(4-hydroxy-1-piperidinyl)-3-pyridinyl]-3-quinolinecarbonitrile], the IC50 in assay [1] (Homo sapiens, Caco-2, 96 h) was greater than 1000 nM; in assay [2] (Homo sapiens, 96 h), 5.7 nM.
With `Cn1ccnc1Sc1ccc(Nc2c(C#N)cnc3cc(-c4ccc(CN5CCC(C(=O)O)CC5)cn4)ccc23)cc1Cl` [Example 175, 1-{[6-(4-{3-chloro-4-[(1-methyl-1H-imidazol-2-yl)sulfanyl]anilino}-3-cyano-7-quinolinyl)-3-pyridinyl]methyl}-4-piperidinecarboxylic acid], the IC50 in assay [1] (Homo sapiens, Caco-2, 96 h) is greater than 1000 nM; in assay [2] (Homo sapiens, 96 h), 330 nM.
As for `CN1CCN(Cc2ccc(-c3ccc4c(Nc5ccc(Sc6nccn6C)c(Cl)c5)c(C#N)cnc4c3)cn2)CC1` [Example 221, 4-({3-chloro-4-[(1-methyl-1H-imidazol-2-yl)sulfanyl]phenyl}amino)-7-{6-[(4-methyl-1-piperazinyl)methyl]-3-pyridinyl}-3-quinolinecarbonitrile], the IC50 in assay [1] (Homo sapiens, Caco-2, 96 h) is greater than 1000 nM; in assay [2] (Homo sapiens, 96 h), 74 nM.
Regarding `CCOC(=O)C1CCN(c2ccc(-c3ccc4c(Nc5ccc(Sc6nccn6C)c(Cl)c5)c(C#N)cnc4c3)cn2)CC1` [Example 213, ethyl 1-{5-[4-({3-chloro-4-[(1-methyl-1H-imidazol-2-yl)sulfanyl]phenyl}amino)-3-cyano-7-quinolinyl]-2-pyridinyl}-4-piperidinecarboxylate], the IC50 in assay [1] (Homo sapiens, Caco-2, 96 h) is greater than 1000 nM; in assay [2] (Homo sapiens, 96 h) it was 45.2 nM.
Take `CN1CCN(Cc2ccc(-c3ccc4c(Nc5ccc(Sc6nccn6C)c(Cl)c5)c(C#N)cnc4c3)cc2)CC1` [Example 135, 4-{3-chloro-4-[(1-methyl-1H-imidazol-2-yl)sulfanyl]anilino}-7-{4-[(4-methyl-1-piperazinyl)methyl]phenyl}-3-quinolinecarbonitrile]: the IC50 is greater than 1000 nM in assay [1] (Homo sapiens, Caco-2, 96 h) and 6.8 nM in assay [2] (Homo sapiens, 96 h).
On to `CCN1CCN(Cc2cccc(-c3ccc4c(Nc5ccc(Sc6nccn6C)c(Cl)c5)c(C#N)cnc4c3)n2)CC1` [Example 201, 4-{3-chloro-4-[(1-methyl-1H-imidazol-2-yl)sulfanyl]anilino}-7-{6-[(4-ethyl-1-piperazinyl)methyl]-2-pyridinyl}-3-quinolinecarbonitrile], for which the 50% inhibitory concentration (IC50) in assay [1] (Homo sapiens, Caco-2, 96 h) is greater than 1000 nM; in assay [2] (Homo sapiens, 96 h), 8.4 nM.
In the same order, the values of `Cn1ccnc1Sc1ccc(Nc2c(C#N)cnc3cc(-c4ccc(CN5CCOCC5)cc4)ccc23)cc1Cl` [Example 63, 4-{3-Chloro-4-[(1-methyl-1H-imidazol-2-yl)sulfanyl]anilino}-7-[4-(4-morpholinylmethyl)phenyl]-3-quinolinecarbonitrile] are 2200 nM and 3800 nM.
On to `Cn1ccnc1Sc1ccc(Nc2c(C#N)cnc3cc(-c4cc(CN5CCOCC5)c(CN5CCOCC5)s4)ccc23)cc1Cl` [Example 169, 7-[4,5-bis(4-morpholinylmethyl)-2-thienyl]-4-{3-chloro-4-[(1-methyl-1H-imidazol-2-yl)sulfanyl]anilino}-3-quinolinecarbonitrile], for which the IC50 in assay [2] (Homo sapiens, 96 h) is 40 nM; in assay [2], 47 nM.
Take `N#Cc1cnc2cc(-c3csc(CN4CCOCC4)c3)ccc2c1Nc1ccc(Cc2ccccc2)cc1` [Example 8, 4-(4-Benzylanilino)-7-[5-(4-morpholinylmethyl)-3-thienyl]-3-quinolinecarbonitrile]: the concentration for half-maximal inhibition (IC50) was greater than 10000 nM in assay [1] (Homo sapiens, Caco-2, 96 h) and greater than 10000 nM in assay [2] (Homo sapiens, 96 h).
`COCCN(C)c1ccc(-c2ccc3c(Nc4ccc(Sc5nccn5C)c(Cl)c4)c(C#N)cnc3c2)cn1` [Example 212, 4-({3-chloro-4-[(1-methyl-1H-imidazol-2-yl)sulfanyl]phenyl}amino)-7-{6-[(2-methoxyethyl)(methyl)amino]-3-pyridinyl}-3-quinolinecarbonitrile]: the IC50 came out at 780 nM in assay [1] (Homo sapiens, Caco-2, 96 h) and 4 nM in assay [2] (Homo sapiens, 96 h).
Turning to `Cn1ccnc1Sc1ccc(Nc2c(C#N)cnc3cc(-c4ccc(CN5CCC(O)CC5)cn4)ccc23)cc1Cl` [Example 172, 4-{3-chloro-4-[(1-methyl-1H-imidazol-2-yl)sulfanyl]anilino}-7-{5-[(4-hydroxy-1-piperidinyl)methyl]-2-pyridinyl}-3-quinolinecarbonitrile], the IC50 in assay [1] (Homo sapiens, Caco-2, 96 h) is greater than 1000 nM; in assay [2] (Homo sapiens, 96 h) it was 7.9 nM.
On to `CCN1CCN(Cc2ccc(-c3ccc4c(Nc5ccc(Sc6nccn6C)c(Cl)c5)c(C#N)cnc4c3)nc2)CC1` [Example 171, 4-{3-chloro-4-[(1-methyl-1H-imidazol-2-yl)sulfanyl]anilino}-7-{5-[(4-ethyl-1-piperazinyl)methyl]-2-pyridinyl}-3-quinolinecarbonitrile], for which the IC50 in assay [2] (Homo sapiens, 96 h) was 8 nM; in assay [2], 5 nM and < 5 nM.
`Cn1ccnc1Sc1ccc(Nc2c(C#N)cnc3cc(-c4ccc(N5CCOCC5)nc4)ccc23)cc1Cl` [Example 190, 4-{3-chloro-4-[(1-methyl-1H-imidazol-2-yl)sufanyl]anilino}-7-[6-(4-morpholinyl)-3-pyridinyl]-3-quinolinecarbonitrile]: in assay [2] (Homo sapiens, 96 h), half-maximal inhibition (IC50) required 2 nM.
